We go through 21 compounds from patent publication US8828991B2, “Azacyclyl-substituted arylthienopyrimidinones, process for their preparation and their use as medicaments” (Sanofi, priority 2006, dated 2014).

The test deals with T1, human MCH receptor (Homo sapiens, UniProt Q99705).
T1 construct: expressed in transfected cells
The experiment in a line: calcium immobilization assay: functional IC50 of MCH1R antagonists (cellular calcium flux, FLIPR). Particulars: recombinant HEK293 cell line expressing the human MCH receptor, calcium flux after addition of agonist (MCH). Type of test: cell-based. An excerpt: Influence on the MCH receptor in vitro; determination of functional IC50 values of MCH1R antagonists
Cloning of the cDNA for the human MCH receptor, preparation of a recombinant HEK293 cell line which expresses the human MCH receptor, and functional measurements with the recombinant cell line took place in analogy to the description by Audinot et al. (J. Biol. Chem. 276, 13554-13562, 2001). A difference from the reference was, however, the use of the plasmid pEAK8 from EDGE Biosystems (JSA) for the construction of the expression vector. The host used for the transfection was a transformed HEK cell line named “PEAK Stable Cells” (likewise from EDGE Biosystems). Functional measurements of the cellular calcium flux after addition of agonist (MCH) in the presence of ligand of the invention took place with the aid of the FLIPR apparatus from Molecular Devices (USA), using protocols of the apparatus manufacturer. The compounds of the invention show a significant inhibition (>30%) of the signal induced by the agonist at a concentration of 100 μM, preferably at 10 μM, particularly preferably at 1 μM, very particularly preferably at 100 nM and even more particularly preferably at 10 nM.

The term IC50 denotes the midpoint of a concentration-inhibition curve.

T1 sequence (Q99705 whole entry): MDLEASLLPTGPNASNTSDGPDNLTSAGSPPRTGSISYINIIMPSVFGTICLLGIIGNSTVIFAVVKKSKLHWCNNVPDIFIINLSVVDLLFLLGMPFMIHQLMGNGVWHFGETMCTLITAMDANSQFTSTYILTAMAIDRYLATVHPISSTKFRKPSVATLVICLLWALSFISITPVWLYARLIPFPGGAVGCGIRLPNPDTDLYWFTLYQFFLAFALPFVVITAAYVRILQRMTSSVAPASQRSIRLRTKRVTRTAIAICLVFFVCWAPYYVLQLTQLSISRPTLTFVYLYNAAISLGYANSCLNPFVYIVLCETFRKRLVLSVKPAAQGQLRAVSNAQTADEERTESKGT

In the case of `CCO/C=C\c1cc2ncn(-c3ccc(N4CCCN(C)CC4)cc3)c(=O)c2s1` [Example 74, 6-((Z)-2-Ethoxyvinyl)-3-[4-(4-methyl[1,4]diazepan-1-yl)phenyl]-3H-thieno[3,2-d]pyrimidin-4-one], the half-inhibitory concentration (IC50) stood at 2950 nM.

Consider `CN(C)[C@@H]1CCN(c2ccc(-n3cnc4cc(N5CCCCC5)sc4c3=O)cc2)C1` [Example 65, 3-[4-((R)-3-Dimethylaminopyrrolidin-1-yl)phenyl]-6-piperidin-1-yl-3H-thieno[3,2-d]pyrimidin-4-one], for which the IC50 worked out at 1330 nM.

For `CN(C)C1CCN(c2ccc(-n3cnc4cc(COCC5CC5)sc4c3=O)cc2)C1` (stereo not drawn) [Example 96, 6-Cyclopropylmethoxymethyl-3-[4-(3-dimethylamino-pyrrolidin-1-yl)-phenyl]-3H-thieno[3,2-d]pyrimidin-4-one], the IC50 came out at 600 nM.

Consider `CN(CCS(C)(=O)=O)[C@@H]1CCN(c2ccc(-n3cnc4cc(CCC5CC5)sc4c3=O)cc2)C1` [Example 50, 6-(2-Cyclopropylethyl)-3-(4-{(R)-3-[(2-methanesulfonylethyl)methylamino]pyrrolidin-1-yl}phenyl)-3H-thieno[3,2-d]pyrimidin-4-one], for which the IC50 was 320 nM.

On to `COCC#Cc1cc2ncn(-c3ccc(N4CC[C@@H](N(C)CCS(C)(=O)=O)C4)cc3)c(=O)c2s1` [Example 39], for which the 50% inhibitory concentration (IC50) is 920 nM.

As to `COCC#Cc1cc2ncn(-c3ccc(N4CC[C@@H](N(C)C)C4)c(F)c3)c(=O)c2s1` [Example 47], the IC50 came to 230 nM.

With `CCCOCc1cc2ncn(-c3ccc(N4CCC(N(C)C)C4)cc3)c(=O)c2s1` (stereo not drawn) [Example 95, 3-[4-(3-Dimethylamino-pyrrolidin-1-yl)-phenyl]-6-propoxymethyl-3H-thieno[3,2-d]pyrimidin-4-one], the concentration for half-maximal inhibition (IC50) was 340 nM.

On to `CS(=O)(=O)CCN1CCCN(c2ccc(-n3cnc4cc(C#CC5CC5)sc4c3=O)cc2)CC1` [Example 44, 6-Cyclopropylethynyl-3-{4-[4-(2-methanesulfonyl-ethyl)-[1,4]diazepan-1-yl]-phenyl}-3H-thieno[3,2-d]pyrimidin-4-one], for which the IC50 was found to be 740 nM.

On to `CCC(O)C#Cc1cc2ncn(-c3ccc(N4CC[C@@H](N(C)CCS(C)(=O)=O)C4)cc3)c(=O)c2s1` (stereo partly drawn) [Example 40], for which the IC50 worked out at 660 nM.

For `CC(C)C(O)C#Cc1cc2ncn(-c3ccc(N4CCCN(C)CC4)cc3)c(=O)c2s1` (stereo not drawn) [Example 26], the concentration for half-maximal inhibition (IC50) was determined as 1100 nM.

On to `CCC(O)CCc1cc2ncn(-c3ccc(N4CC[C@@H](N5CCCC5)C4)c(F)c3)c(=O)c2s1` (stereo partly drawn) [Example 63], for which the IC50 was found to be 240 nM.

Consider `CN(C)[C@@H]1CCN(c2ccc(-n3cnc4cc(C#CC5(O)CCCC5)sc4c3=O)cc2)C1` [Example 32], for which the IC50 was 1350 nM.

Turning to `COCCCc1cc2ncn(-c3ccc(N4CC[C@@H](N5CCCC5)C4)c(F)c3)c(=O)c2s1` [Example 61], the concentration for half-maximal inhibition (IC50) was determined as 560 nM.

For `CN1CCCN(c2ccc(-n3cnc4cc(C(=O)C5CCCC5)sc4c3=O)cc2)CC1` [Example 76, 6-Cyclopentanecarbonyl-3-[4-(4-methyl[1,4]diazepan-1-yl)phenyl]-3H-thieno[3,2-d]pyrimidin-4-one], the IC50 was 8740 nM.

Regarding `CC(O)C#Cc1cc2ncn(-c3ccc(N4CC[C@@H](N(C)C)C4)c(F)c3)c(=O)c2s1` (stereo partly drawn) [Example 49], the IC50 turned out to be 180 nM.

As for `CN1CCCN(c2ccc(-n3cnc4cc(C(O)C5CCCC5)sc4c3=O)cc2)CC1` (stereo not drawn) [Example 77, 6-(Cyclopentylhydroxymethyl)-3-[4-(4-methyl[1,4]diazepan-1-yl)phenyl]-3H-thieno[3,2-d]-pyrimidin-4-one], the half-inhibitory concentration (IC50) stood at 9030 nM.

For `CC(O)C#Cc1cc2ncn(-c3ccc(N4CC[C@@H](N(C)C)C4)cc3)c(=O)c2s1` (stereo partly drawn) [Example 30, 3-[4-((R)-3-Dimethylaminopyrrolidin-1-yl)phenyl]-6-(3-hydroxybut-1-ynyl)-3H-thieno[3,2-d]pyrimidin-4-one], the IC50 stood at 380 nM.

On to `COC(C)(C)CCc1cc2ncn(-c3ccc(N4CC[C@@H](N(C)C)C4)cc3)c(=O)c2s1` [Example 57], for which the IC50 is 2090 nM.

Turning to `CC(O)C#Cc1cc2ncn(-c3ccc(N4CC[C@@H](N(C)CCS(C)(=O)=O)C4)cc3)c(=O)c2s1` (stereo partly drawn) [Example 38], the IC50 is 440 nM.

On to `C[C@@H](O)C#Cc1cc2ncn(-c3ccc(N4CC[C@@H](N5CCCC5)C4)c(F)c3)c(=O)c2s1` [Example 42], for which the 50% inhibitory concentration (IC50) was found to be 180 nM.

Turning to `CN(C)[C@@H]1CCN(c2ccc(-n3cnc4cc(C#CC5CC5)sc4c3=O)cc2)C1` [Example 45, 6-Cyclopropylethynyl-3-[4-((R)-3-dimethylamino-pyrrolidin-1-yl)-phenyl]-3H-thieno[3,2-d]pyrimidin-4-one], the concentration for half-maximal inhibition (IC50) was 110 nM.
